This is an account of results in US20260240746A1, “TOPICAL COMPOSITION AND IMPLEMENTATIONS THEREOF” (ULTRAMARINE & PIGMENTS LIMITED, priority 2022, published 2026).

Several values for one entry are separate records, joined by “and”; a condition that tells them apart may be missing. Identical values can stand only once.

The subject of series [1] is Murine fibroblast cell line (3T3). The series is described as follows: Skin reactivity analysis by agar diffusion assay. The format is cell-based. To be noted: 3T3 cells, 24 hours exposure. As for the experimental part:
Skin reactivity analysis was carried out for the topical composition samples by agar diffusion assay. Murine fibroblast cell line (3T3) cells were seeded onto 60 mm tissue culture grade plastic Petri dishes and incubated for 24 hrs. After 24 hrs the media was replaced by a layer of 1% agar. Stock solution of 100 mg/ml of reference standard was prepared in sterile phosphate buffered saline (PBS) and tested at 10% (100 mg/ml). 5 μl of reference standard was loaded on to 6 mm sterile Whatman filter paper discs which were placed on the agar layer. Neat topical composition sample was used for testing. Approximately 5 μl of the topical composition sample was loaded on to 6 mm sterile Whatman filter paper discs which were placed on the agar layer. Sterile PBS was used as the negative control. Positive and negative controls were run concurrently. After an exposure of 24 hours to the samples, the assays were terminated by the addition of MTT (3-[4,5-dimethylthiazol-2-yl]-2,5-diphenyltetrazolium bromide; Thiazolyl blue) (Sigma M 5655) and incubated overnight in the dark. The following day, the cells were observed under the microscope and checked for the presence of crystals under the area of sample loading. The sample causing cell death was indicated by a clear zone of inhibition. The colour was allowed to develop overnight and the zone of inhibition was measured. The readings of the test samples were then scored based on comparisons with the positive and negative controls in compliance with the USP (U.S. Pharmacopoeia) grades for the agar diffusion test (Table 2).
Background: In agar diffusion tests the substance spreads into inoculated agar from a disc or well.

Another series has as its system skin. Kind of series: Moisturization analysis (Scalar moisture checker). The class given is in vivo, human. The settings on record: skin of the hand, 20° C., 60% RH. Here is the method:
The topical composition samples of the present disclosure and the commercial silicones (cyclopentasiloxane, dimethicone) were applied on a skin patch and the moisture content was analyzed for a duration of 8 hrs. The test was conducted on 3 volunteers. Three areas were marked on the skin of the hand. The composition was applied by rubbing in a circular direction for a period of two minute on the marked areas. The third area was kept blank. The readings were taken after five minutes of drying by Scaler Moisture Checker. The temperature of the room was kept at 20° C. and humidity was maintained at 60% RH. The moisture analysis was done using moisture checker from Scalar Impressive works. Scalar moisture checker works on the principle of capacitance to measure the permittivity of skin. […] The checker was pressed on the desired area perpendicularly to the skin and was held for a few seconds. […] Moisture level Content of 45.1 and above represent a very high moisture level, when moisture level is between 39.1-45.0 it is high normal, between 27.1-39.0 is mid normal, between 22.1-27.0 is low normal, between 12.1 to 22.0 is low and below 12.1 is very low moisture level. A graph of time after application and the moisture level content was plotted for each composition.

As to `CCCCCCCCCCCCOS(=O)(=O)[O-].[Na+]` [Positive Control, sodium dodecyl sulphate], in series [1], the Reactivity result was “Severe (Zone extends greater than 1.0 cm beyond specimen)”. The “Zone of Inhibition, mean per experiment” value in series [1] (sample neat (100% concentration), Expt 1-3, sulphate) was 1.08 cm and 1.14 cm and 1.20 cm. Besides, in series [1] (sample neat (100% concentration), reference standard 10% (100 mg/ml), Expt 1-3, sulphate), the “Zone of Inhibition, individual readings” value is 1.05 cm and 1.03 cm and 1.17 cm and 1.13 cm and 1.07 cm and 1.23 cm and 1.20 cm and 1.18 cm and 1.22 cm. The “Zone of Inhibition, Mean ± SD of three independent experiments” value in series [1] (sample neat (100% concentration), listed as positive control, sulphate) came to 1.14±0.06 cm; in series [1] (sample neat (100% concentration), sulphate), 1.14 ± 0.06 cm.
Consider `C[Si]1(C)O[Si](C)(C)O[Si](C)(C)O[Si](C)(C)O[Si](C)(C)O1` [Cyclopentasiloxane, cyclopentasiloxane], for which the “moisture content retained until 8 hours after application” value with skin (8 hours after application) is 21%. The “moisture content after application” value in the series on skin (after application) came out at 23%.
